Results as given in US20070219128A1, “Medical and health-care uses of pufferfish type I collagen extract and processes for producing said extract” (NANJING BESSON PHARMACY CO., LTD, priority 2003, published 2007).

What was measured:
[1] = tested on: pylorus-ligated Shay rat gastric ulcer; experiment: Pylorus-ligated Shay rat gastric ulcer; format: in vivo, SD rats; details: 80 mg/kg, ig; mean ± SD
Description: 50 SD rats with a body weight of 180 to 200 g and equal numbers of female and male were provided by the Experimental Animal Center of Nanjing Medical University, and the tests were conducted according to the methods in “Collection of Guidelines for Preclinical Studies of New Drugs (Western Medicines)” edited by China Ministry of Health.

[2] = tested on: acetic acid-burn induced gastric ulcer in rats; experiment: Acetic acid-burn induced gastric ulcer in rats; format: in vivo; details: 80 mg/kg, ig; mean ± SD
Description: 50 SD rats with a body weight of 180 to 200 g and equal numbers of female and male were provided by the Experimental Animal Center of Nanjing Medical University, and the tests were conducted according to the methods in “Collection of Guidelines for Preclinical Studies Of New Drugs (Western Medicines)” edited by China Ministry of Health.

[3] = tested on: cysteamine-induced rat duodenal ulcer; experiment: Cysteamine-induced rat duodenal ulcer; format: in vivo, SD rats; details: 20 mg/kg
Description: 50 male SD rats with a body weight of 250 to 300 g were used, and cysteamine was commercially available from Sigma Company. The tests were conducted according to the methods in “Drug Discovery and Evaluation—Pharmacological Assays” (H. G. Vogel, W. H. Vogel. Chinese version, translated by Du Guanhua, published by Science Publishing House).

[4] = tested on: acetic acid-induced rat colonitis; experiment: 10% acetic acid-induced rat ulcerative colonitis; format: in vivo, SD rats; details: 10 mg/kg, mean ± SD
Description: The test was conducted according to the method in the document (Ritzpatrick, R. et al., Agents Actions. 1990, 30:393-402). SD rats were subjected to rectoclysis to form models of colonitis. From the 4th day after the models had been made, the rats were intragastrically administrated for 4 days.

[5] = tested on: anhydrous ethanol-induced rat gastric mucosa damage; experiment: Anhydrous ethanol-induced rat gastric mucosa damage; format: in vivo, SD rats; details: 100 mg/kg, ig; mean ± SD
Description: 60 SD rats with equal numbers of female and male were provided by the Experimental Animal Center of Nanjing Medical University, and the tests were conducted according to the methods in “Collection of Guidelines for Preclinical Studies of New Drugs (Western Medicines)” edited by China Ministry of Health.

[6] = tested on: PGE2 content in gastric mucosa; experiment: PGE2 content in gastric mucosa of rat with indomethacin-induced gastric ulcer (radioimmunoassay); format: in vivo, SD rats; details: 100 mg/kg; mean ± SD
Description: 60 SD rats with a body weight of 180 to 200 g and equal numbers of male and female were used, Indomethacin was commercially available from Sigma Company. The PGE2 content was measured by radioimmunoassay. The tests were conducted according to the methods in “Drug Discovery and Evaluation—Pharmacological Assays” (H. G. Vogel, W. H. Vogel. Chinese version, translated by Du Guanhua, published by Science Publishing House).

[7] = tested on: TNBS-induced rat colonitis; experiment: TNBS-induced rat colonitis; format: in vivo, SD rats; details: 0.3 g/kg, intragastric for 7 days; mean ± SD
Description: The test was counted according to the method in the document (Morris, C. P. et al: Gastroenterology. 1989, 96:795-803). TNBS was commercially available from Sigma Company. SD rats were subjected to rectoclysis of 100 mg/kg of TNBS to form models of colonitis. Each group included 10 rats. From the 14th day after the models had been made, the rats were intragastrically administrated for 7 days. The rats were killed by drawing their necks and were dissected, and their colon sections were histopathologically observed.

[8] = tested on: mouse gastric emptying; experiment: Mouse gastric emptying (phenol red method); format: in vivo, Kunming mice; details: 0.1 mg/kg; mean ± SD
Description: 105 Kunming mice with a body weight of from 20 to 25 g and equal numbers of male and female were used. The test was conducted according to the methods in “Collection of Guidelines for Preclinical Studies of New Drugs (Western Medicines)” edited by China Ministry of Health, and the phenol red method (Shi G., et al. Gut, 41:612-618, 1997).

CN/C(=N/CCSCc1nc[nH]c1C)NC#N [Cimetidine]
Ulcer index [1]: 15.8 ± 1.5
Ulcer area (mm^2) [2]: 44.7 ± 38.4 mm^2

NC(N)=Nc1nc(CSCCC(N)=NS(N)(=O)=O)cs1 [Famotidine]
Inhibition ratio (%) [3]: 27.27%
Ulcer index ([3]; mean ± SD): 2.0 ± 1.3
Score of ulcer index ([4]; intragastric for 4 days): 4.14 ± 3.76
Ratio of bowel weight to body weight (×10^−2) [4]: 0.92 ± 0.45 ×10^−2

Bismuth Potassium Citrate
Ulcer index [5]: 15.0 ± 6.0
PGE2 (pg/mg protein) [6]: 170 ± 104 pg/mg protein

O=C(O)c1cc(/N=N/c2ccc(S(=O)(=O)Nc3ccccn3)cc2)ccc1O [Sulfasalazine]
Increment of body weight [7]: 68.89 ± 21.64

CN(C)C(=O)Oc1ccc[n+](C)c1 [Pyridostigmine bromide]
Amount of residual phenol red in stomach [8]: 0.47 ± 0.36 mg
Gastric emptying ratio (%) [8]: 93.8 ± 4.8 %
